From PMC4851326, “Pharmacologic Comparison of Clinical Neutral Endopeptidase Inhibitors in a Rat Model of Acute Secretory Diarrhea” (The Journal of Pharmacology and Experimental Therapeutics, 2016)

Experiments:
[1] = target: T1, NEP (Homo sapiens, UniProt P08473); experiment: Purified peptidase assay, NEP; assay type: biochemical; settings: recombinant purified human enzyme; for prodrugs the active form was tested
T1 construct: purchased R&D Systems (Minneapolis, MN)
Description: (§1) Purified recombinant human enzymes were purchased from R&D Systems (Minneapolis, MN). […] Each substrate was diluted to 100 μM in the assay buffer recommended for each enzyme by the supplier. […] To these, 5 μl of diluted enzyme was added, followed by 10 μl of the quenched peptide substrate. The plates were incubated at 37°C until at least 10% substrate turnover or 5 μM product had formed. Fluorescence was measured using a Tecan Safire II (Excitation 320 nm/Emission 420 nm). Each plate included a standard curve of reaction product and positive (no enzyme) and negative (dimethyl sulfoxide vehicle) controls. Dose-response data were plotted and inhibition values (IC50) determined by linear regression analysis using GraphPad Prism (GraphPad Software, La Jolla, CA).

[2] = target: T2, ACE (Homo sapiens, UniProt P12821); experiment: Purified peptidase assay, ACE; assay type: biochemical; settings: recombinant purified human enzyme; for prodrugs the active form was tested
T2 construct: purchased R&D Systems (Minneapolis, MN)
T2 sequence (P12821 30-1306): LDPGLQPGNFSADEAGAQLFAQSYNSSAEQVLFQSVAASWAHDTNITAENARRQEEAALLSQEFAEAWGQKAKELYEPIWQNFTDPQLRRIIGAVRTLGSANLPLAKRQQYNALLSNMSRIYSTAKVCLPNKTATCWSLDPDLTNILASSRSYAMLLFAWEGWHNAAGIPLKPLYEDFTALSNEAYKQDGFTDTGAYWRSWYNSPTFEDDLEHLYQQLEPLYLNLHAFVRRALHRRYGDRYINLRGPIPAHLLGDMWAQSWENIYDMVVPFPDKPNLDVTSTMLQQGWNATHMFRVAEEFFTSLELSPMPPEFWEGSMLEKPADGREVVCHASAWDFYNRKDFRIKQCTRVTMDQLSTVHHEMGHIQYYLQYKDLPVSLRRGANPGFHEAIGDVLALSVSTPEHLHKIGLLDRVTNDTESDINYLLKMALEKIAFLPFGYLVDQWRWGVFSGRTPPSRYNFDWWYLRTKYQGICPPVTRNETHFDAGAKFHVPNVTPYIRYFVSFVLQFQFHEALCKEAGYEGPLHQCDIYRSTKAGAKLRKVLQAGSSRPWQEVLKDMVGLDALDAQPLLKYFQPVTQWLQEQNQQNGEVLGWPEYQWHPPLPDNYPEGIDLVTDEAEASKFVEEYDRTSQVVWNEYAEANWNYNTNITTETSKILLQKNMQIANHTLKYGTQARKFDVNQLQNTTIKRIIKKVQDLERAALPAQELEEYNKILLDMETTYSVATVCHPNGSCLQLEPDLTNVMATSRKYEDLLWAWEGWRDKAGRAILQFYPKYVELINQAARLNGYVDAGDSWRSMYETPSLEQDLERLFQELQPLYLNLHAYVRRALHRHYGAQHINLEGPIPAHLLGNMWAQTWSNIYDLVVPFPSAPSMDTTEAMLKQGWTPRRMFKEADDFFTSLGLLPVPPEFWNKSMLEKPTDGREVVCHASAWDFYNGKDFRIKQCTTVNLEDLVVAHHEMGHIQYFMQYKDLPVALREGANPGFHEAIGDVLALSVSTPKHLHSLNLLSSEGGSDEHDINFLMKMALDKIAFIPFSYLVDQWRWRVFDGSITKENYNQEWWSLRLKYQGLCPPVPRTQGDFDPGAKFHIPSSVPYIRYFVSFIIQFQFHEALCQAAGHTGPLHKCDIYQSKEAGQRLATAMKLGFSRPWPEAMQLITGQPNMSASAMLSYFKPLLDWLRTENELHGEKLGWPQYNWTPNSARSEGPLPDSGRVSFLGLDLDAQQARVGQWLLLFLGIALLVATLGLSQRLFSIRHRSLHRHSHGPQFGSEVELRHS
Description: as §1

[3] = target: T3, ECE-2 (Homo sapiens, UniProt P0DPD6); experiment: Purified peptidase assay, ECE-2; assay type: biochemical; settings: recombinant purified human enzyme; for prodrugs the active form was tested
T3 construct: purchased R&D Systems (Minneapolis, MN)
T3 sequence (P0DPD6 1-811): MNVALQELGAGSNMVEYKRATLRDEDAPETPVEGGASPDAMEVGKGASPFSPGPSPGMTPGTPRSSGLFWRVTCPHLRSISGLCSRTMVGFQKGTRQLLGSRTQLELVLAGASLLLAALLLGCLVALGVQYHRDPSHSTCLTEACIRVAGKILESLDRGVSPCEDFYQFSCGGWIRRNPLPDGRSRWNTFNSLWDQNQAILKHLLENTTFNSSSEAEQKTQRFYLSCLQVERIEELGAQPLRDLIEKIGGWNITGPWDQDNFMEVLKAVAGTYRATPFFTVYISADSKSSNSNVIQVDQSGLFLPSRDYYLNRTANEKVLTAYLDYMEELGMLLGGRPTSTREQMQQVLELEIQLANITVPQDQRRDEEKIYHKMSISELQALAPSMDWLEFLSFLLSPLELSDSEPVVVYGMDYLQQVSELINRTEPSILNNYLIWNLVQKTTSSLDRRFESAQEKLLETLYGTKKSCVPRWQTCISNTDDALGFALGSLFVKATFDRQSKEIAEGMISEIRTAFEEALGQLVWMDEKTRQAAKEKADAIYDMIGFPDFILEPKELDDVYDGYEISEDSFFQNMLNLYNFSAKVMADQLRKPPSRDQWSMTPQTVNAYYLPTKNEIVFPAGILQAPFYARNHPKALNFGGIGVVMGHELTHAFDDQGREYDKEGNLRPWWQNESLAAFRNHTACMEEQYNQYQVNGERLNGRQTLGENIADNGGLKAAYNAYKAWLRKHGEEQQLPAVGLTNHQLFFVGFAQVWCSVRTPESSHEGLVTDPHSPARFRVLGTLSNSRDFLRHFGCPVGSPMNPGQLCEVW
Description: as §1

[4] = target: T4, IDE (Homo sapiens, UniProt P14735); experiment: Purified peptidase assay, IDE; assay type: biochemical; settings: recombinant purified human enzyme; for prodrugs the active form was tested
T4 construct: purchased R&D Systems (Minneapolis, MN)
T4 sequence (P14735 1-1019): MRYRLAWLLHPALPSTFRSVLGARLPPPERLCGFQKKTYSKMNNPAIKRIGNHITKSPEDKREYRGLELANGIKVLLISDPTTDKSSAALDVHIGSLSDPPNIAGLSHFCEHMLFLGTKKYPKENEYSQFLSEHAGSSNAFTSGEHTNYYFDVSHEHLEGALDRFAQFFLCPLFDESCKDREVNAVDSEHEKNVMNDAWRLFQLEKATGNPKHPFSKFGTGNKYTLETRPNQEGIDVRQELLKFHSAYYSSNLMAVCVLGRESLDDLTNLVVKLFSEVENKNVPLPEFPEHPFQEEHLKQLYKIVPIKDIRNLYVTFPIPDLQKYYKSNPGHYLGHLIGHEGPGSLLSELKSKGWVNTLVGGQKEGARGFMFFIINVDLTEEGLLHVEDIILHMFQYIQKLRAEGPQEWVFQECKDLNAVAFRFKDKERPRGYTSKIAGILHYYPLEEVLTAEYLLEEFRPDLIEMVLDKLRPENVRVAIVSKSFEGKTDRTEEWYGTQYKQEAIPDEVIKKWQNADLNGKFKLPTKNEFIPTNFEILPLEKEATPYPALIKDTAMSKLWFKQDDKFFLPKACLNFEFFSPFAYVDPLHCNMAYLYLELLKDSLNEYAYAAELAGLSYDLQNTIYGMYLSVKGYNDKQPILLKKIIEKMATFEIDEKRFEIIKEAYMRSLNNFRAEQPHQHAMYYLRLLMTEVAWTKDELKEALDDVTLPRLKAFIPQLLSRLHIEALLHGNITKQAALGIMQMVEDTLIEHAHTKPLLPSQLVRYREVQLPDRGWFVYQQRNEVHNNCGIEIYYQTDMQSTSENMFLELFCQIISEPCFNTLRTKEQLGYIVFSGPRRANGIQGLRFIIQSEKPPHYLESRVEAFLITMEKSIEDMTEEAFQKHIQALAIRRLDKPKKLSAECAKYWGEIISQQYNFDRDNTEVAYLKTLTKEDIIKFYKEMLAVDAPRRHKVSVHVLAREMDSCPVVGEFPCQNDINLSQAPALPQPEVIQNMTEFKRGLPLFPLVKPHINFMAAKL
Description: as §1

[5] = test system: castor oil–induced diarrhea; experiment: Castor oil–induced diarrhea model; assay type: in vivo, rat; settings: single oral dose 30 minutes before castor oil, fasted rats, vs vehicle (Fig. 1)
Description: Experiments were performed with 6-to-7-week-old male Wistar rats obtained from Charles River Laboratories (Wilmington, MA). All animals were housed in Saint Louis University facilities under controlled conditions of temperature, humidity, and a 12-hour light/dark cycle. They were maintained on standard rodent chow with free access to water. Animal care and all procedures were performed in accordance with the National Institutes of Health Guide for the Care and Use of Laboratory Animals and approved by the university’s institutional animal care and use committee.
Animals were weighed and individually housed in metabolic cages containing white paper underneath to collect feces. Test compounds or vehicles were administered by oral gavage (5 ml/kg), and then at indicated times, 10 ml/kg body weight of 100% castor oil was administered by oral gavage to induce diarrhea. Animals had access to food within 5 minutes. Stool weight was recorded starting 15 minutes after castor oil administration and repeated every 15 minutes up to 4 hours. […] After 4 hours, animals were euthanized with CO2, and blood and tissues were collected for analyses.

T1 sequence (P08473 whole entry): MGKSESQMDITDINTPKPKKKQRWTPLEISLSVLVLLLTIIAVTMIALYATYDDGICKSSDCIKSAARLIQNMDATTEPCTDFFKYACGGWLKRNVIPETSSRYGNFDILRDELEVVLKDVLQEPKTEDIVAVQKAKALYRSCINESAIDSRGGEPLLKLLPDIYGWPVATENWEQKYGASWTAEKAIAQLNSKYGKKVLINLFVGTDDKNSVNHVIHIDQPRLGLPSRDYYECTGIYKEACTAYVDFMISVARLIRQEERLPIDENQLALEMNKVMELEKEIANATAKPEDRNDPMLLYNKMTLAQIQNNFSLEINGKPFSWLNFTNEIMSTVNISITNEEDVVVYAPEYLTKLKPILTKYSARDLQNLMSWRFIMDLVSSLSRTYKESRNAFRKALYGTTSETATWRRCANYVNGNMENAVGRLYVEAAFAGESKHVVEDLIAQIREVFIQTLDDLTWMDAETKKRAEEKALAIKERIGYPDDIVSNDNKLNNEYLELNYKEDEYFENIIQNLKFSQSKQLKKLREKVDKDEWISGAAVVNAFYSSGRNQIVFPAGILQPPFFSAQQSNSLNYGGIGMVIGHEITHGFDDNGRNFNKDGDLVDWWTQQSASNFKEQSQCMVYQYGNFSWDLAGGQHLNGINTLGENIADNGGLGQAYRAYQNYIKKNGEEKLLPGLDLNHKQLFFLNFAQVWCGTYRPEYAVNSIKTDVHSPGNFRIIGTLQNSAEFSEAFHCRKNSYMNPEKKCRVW

IC50 [1]: 0.004 µM
IC50 [2]: > 100 µM
IC50 [3]: 15 µM
IC50 [4]: > 100 µM
Structure (SMILES): Cc1nc2ccc(CCCNC(=O)C3(C[C@@H](C)C(=O)O)CCCC3)cc2s1 [UK-505,749, (R)-2-methyl-3-(1-((3-(2-methylbenzo[d]thiazol-6-yl)propyl)carbamoyl)cyclopentyl)propanoic acid]
Cumulative stool output over 4 hours [5]: significantly reduced
